# Patent publication US20260070900A1, “A NOVEL CRYSTALLINE FORM OF PRITELIVIR” (Assembly Biosciences, Inc., priority 2022, published 2026)
# Entries after “also recorded” stand apart in the source; their conditions may differ.
# Assays:
# [1] = Dynamic vapor sorption (DVS) humidity stability, with XRPD post-DVS; assay type: physicochemical
# Method: Powder X-Ray Diffraction (PXRD): PXRD diffractograms were acquired on Rigaku Smartlab SE diffractometer using Cu, Kα, Kα1(Å):1.540598, Kα2(Å):1.544426 radiation with a Kα2:Kα1 intensity ratio of 0.50. X-Ray tube setting was 40 kV, 15 mA, Scan Mode 1D. The scan range (2 theta) was 3-40°, step size (2 theta) of 0.02° with scan speed (2 theta) of 10°/min. Dynamic Vapor Sorption (DVS): DVS analysis was performed on an Adventure DVS instrument, using a partial pressure range of 0-90%, with a step size of 10% and dm/dt=0.002. DVS data was collected at 25° C. 2 cycles were performed per analysis. Gas flow of N2 (200 sccm) was used.
# [2] = Solubility determination in 0.9% NaCl and 0.5% polysorbate 80 (HPLC of filtrate); assay type: physicochemical; details: RT, aqueous vehicle with 0.9% NaCl and 0.5% polysorbate 80, at 24 hours
# Method: Sample preparation: excess Type 4 was added to the vehicle containing 0.9% NaCl and 0.5% polysorbate 80. The mixture was sonicated for 15 minutes, then agitated at 500 rpm at room temperature. At 24 hours, the mixture was filtrated, and filtrate was analyzed by HPLC to determine the solubility. • Instrument: Agilent 1260 • Column: ACE ultracore super C18 (100 mm*4.6 mm*2.5 μm) (P/N: CORE-25A-1046U) • Wavelength: 234 nm • Column Temperature: 20° C. • Column Flow: 1.0 mL/min • Acquisition time: 25 min • Injection volume: 5 μL • Retention time: ˜14 min • Mobile Phase A: 5 mM (NH4)2HPO4 and 5 mM of NH4H2PO4 in H2O • Mobile Phase B: ACN The solubility of Form C (hemihydrate as disclosed in WO 2018/096170) was determined in the same media used to determine the solubility of Type 4 as described above. Sample preparation: excess Form C was added to the vehicle containing 0.9% NaCl and 0.5% polysorbate 80. The mixture was sonicated for 15 minutes, then agitated at 500 rpm at room temperature. […]
# [3] = DVS at 25° C., 0-90% partial pressure, 2 cycles
SMILES,"relative humidity at which the form is stable (DVS) [1, 3]","relative humidity at which weight loss is observed (DVS) [1, 3]","solid form post DVS experiment by XRPD ([1]; after DVS, XRPD)",stability to humidity (in words) ([1]; conclusion from the characterization data of Example 1),solubility [2]
"Cc1nc(N(C)C(=O)Cc2ccc(-c3ccccn3)cc2)sc1S(N)(=O)=O [Type 4, N-methyl-N-(4-methyl-5-sulfamoylthiazol-2-yl)-2-(4-(pyridin-2-yl)phenyl)acetamide]",greater than 20%,less than 10%,confirmed as Type 4,stable across a large humidity range; also recorded: stable across a wide range of humidity levels,around 18.2 μg/mL
"Cc1nc(N(C)C(=O)Cc2ccc(-c3ccccn3)cc2)sc1S(N)(=O)=O [Form C, N-methyl-N-(4-methyl-5-sulfamoylthiazol-2-yl)-2-(4-(pyridin-2-yl)phenyl)acetamide, reference compound]",,,,,around 8.4 μg/mL
